Measurements as given in paper PMC4941640 (Cancer cell, 2015).
Where two headings read alike, the source gives them in different places.

Assays:
A549 cells [1] = experiment: p62 modulation by immunofluorescence; format: cell-based
AMO-1 = experiment: cells; conditions: Homo sapiens, AMO1, read-out: IC50 in vitro, AMO-1
DNA-PK [2] = target: T1, DNA-PK (Homo sapiens, UniProt P78527); conditions: A549 cells, 6 hr, nuclear phospho-H2AX
[3] = system: HEK293T cells stably expressing TCRα-GFP; experiment: cells; conditions: Homo sapiens, HEK-293T, read-out: EC50, accumulation of TCRα-GFP
HCT116 xenograft tumors = conditions: 100 mg/kg single oral dose, 6 hr, nude mice
A549 cells [4] = experiment: cells; conditions: Homo sapiens, A549, read-out: EC50, induction of CHOP protein
AMO-1 xenograft = conditions: after 2 cycles of treatment, qd4/3off
HCT116 or A549 tumors = conditions: single administration, nude mice bearing HCT116 or A549 tumors
HCT 116 T688A xenografts = conditions: 90 mg/kg
mTOR = mTOR vs p97, dose titration
[5] = all dosing schedules tested, tumor-bearing mice, po
[6] = system: HEK293 cells expressing GFPu; experiment: cells; conditions: Homo sapiens, HEK293, read-out: EC50, accumulation of GFPu
350 cancer cell lines = experiment: cells; conditions: 72 h
PIK3C3 = PIK3C3 vs p97, dose titration
DNA-PK [7] = target: T1, DNA-PK; conditions: DNA-PK vs p97, dose titration

SMILES: CC(C)C[C@H](NC(=O)[C@H](Cc1ccccc1)NC(=O)c1cnccn1)B(O)O [bortezomib]
- effect on p62 levels (A549 cells [1]): decreases in p62 levels

SMILES: CC(C)n1nc(-c2ccc3oc(N)nc3c2)c2c(N)ncnc21 [INK-128]
- effect on p62 levels (A549 cells [1]): decrease in p62 levels

SMILES: CO/C1=C\C(C)=C\[C@@H](C)[C@@H](O)[C@@H](C)C/C(C)=C/C=C/[C@H](OC)[C@@H]([C@@H](C)[C@@H](O)[C@H](C)[C@@]2(O)C[C@@H](O)[C@H](C)[C@@H](C(C)C)O2)OC1=O [bafilomycin A1]
- effect on p62 levels (A549 cells [1]): accumulation of p62 in peri-nuclear foci

SMILES: Cc1cc(OCc2nnc(SC3CCCC3)n2-c2cccnc2)ccc1-c1ccc(S(C)(=O)=O)cc1 [NMS-873]
- effect on p62 levels (A549 cells [1]): decreases in p62 levels

SMILES: Cc1cc2c(C(N)=O)cccc2n1-c1nc2c(c(NCc3ccccc3)n1)COCC2 [CB-5083, 1-[4-(benzylamino)-5H,7H,8H-pyrano[4,3-d]pyrimidin-2-yl]-2-methyl-1H-indole-4-carboxamide]
- IC50 (AMO-1): 0.081 µM
- effect on p62 levels (A549 cells [1]): rapidly cleared from cells
- inhibition of DNA-PK in cell-based assay (DNA-PK [2]): not to inhibit DNA-PK at concentrations that caused cell death
- EC50 [3]: 0.73 µM
- decrease of p62 protein levels in tumor (HCT116 xenograft tumors): 60%
- EC50 (A549 cells [4]): 1.19 µM
- complete regressions of tumors (animals) (AMO-1 xenograft): 6/12
- accumulation of poly-ubiquitin or CHOP in tumor tissue (HCT116 or A549 tumors): strong and sustained induction of polyubiquitin
- tumor growth of T688A mutant model (HCT 116 T688A xenografts): not inhibited
- tumor growth inhibition (TGI) (HCT116 xenograft; 50 mg/kg po, qd): 62%
- tumor growth inhibition (TGI) (HCT116 xenograft; 100 mg/kg po, qd4/3off): 78%
- fold less affinity compared to p97 (mTOR): 128 fold
- weight loss [5]: < 10%
- EC50 [6]: 1.05 µM
- EC50 (350 cancer cell lines; read-out: EC50 of cell viability, lower end of range in panel): ≥ 0.081 µM
- EC50 (350 cancer cell lines; read-out: EC50 of cell viability, upper end of range in panel): ≤ 2.1 µM
- fold less affinity compared to p97 (PIK3C3): 158 fold
- fold less affinity compared to p97 (DNA-PK [7]): 29.6 fold
